Assay results published in US8541588B2, “Sulfonamide derivatives” (Pfizer Limited, priority 2009, dated 2013).

These molecules were tested against T1, Nav1.7 (or SCN9A) channel; HEK cells stably transfected with hSCN9A (Homo sapiens, UniProt Q15858) (assay: Nav1.7 block, PatchXpress 7000 automated whole-cell voltage clamp, estimated IC50 (EIC50)). Details: PatchXpress platform; hSCN9A HEK cells held at V1/2 of inactivation; estimated IC50.
T1 construct: expressed in transfected cells
Assay type: cell-based

T1 sequence (Q15858 whole entry): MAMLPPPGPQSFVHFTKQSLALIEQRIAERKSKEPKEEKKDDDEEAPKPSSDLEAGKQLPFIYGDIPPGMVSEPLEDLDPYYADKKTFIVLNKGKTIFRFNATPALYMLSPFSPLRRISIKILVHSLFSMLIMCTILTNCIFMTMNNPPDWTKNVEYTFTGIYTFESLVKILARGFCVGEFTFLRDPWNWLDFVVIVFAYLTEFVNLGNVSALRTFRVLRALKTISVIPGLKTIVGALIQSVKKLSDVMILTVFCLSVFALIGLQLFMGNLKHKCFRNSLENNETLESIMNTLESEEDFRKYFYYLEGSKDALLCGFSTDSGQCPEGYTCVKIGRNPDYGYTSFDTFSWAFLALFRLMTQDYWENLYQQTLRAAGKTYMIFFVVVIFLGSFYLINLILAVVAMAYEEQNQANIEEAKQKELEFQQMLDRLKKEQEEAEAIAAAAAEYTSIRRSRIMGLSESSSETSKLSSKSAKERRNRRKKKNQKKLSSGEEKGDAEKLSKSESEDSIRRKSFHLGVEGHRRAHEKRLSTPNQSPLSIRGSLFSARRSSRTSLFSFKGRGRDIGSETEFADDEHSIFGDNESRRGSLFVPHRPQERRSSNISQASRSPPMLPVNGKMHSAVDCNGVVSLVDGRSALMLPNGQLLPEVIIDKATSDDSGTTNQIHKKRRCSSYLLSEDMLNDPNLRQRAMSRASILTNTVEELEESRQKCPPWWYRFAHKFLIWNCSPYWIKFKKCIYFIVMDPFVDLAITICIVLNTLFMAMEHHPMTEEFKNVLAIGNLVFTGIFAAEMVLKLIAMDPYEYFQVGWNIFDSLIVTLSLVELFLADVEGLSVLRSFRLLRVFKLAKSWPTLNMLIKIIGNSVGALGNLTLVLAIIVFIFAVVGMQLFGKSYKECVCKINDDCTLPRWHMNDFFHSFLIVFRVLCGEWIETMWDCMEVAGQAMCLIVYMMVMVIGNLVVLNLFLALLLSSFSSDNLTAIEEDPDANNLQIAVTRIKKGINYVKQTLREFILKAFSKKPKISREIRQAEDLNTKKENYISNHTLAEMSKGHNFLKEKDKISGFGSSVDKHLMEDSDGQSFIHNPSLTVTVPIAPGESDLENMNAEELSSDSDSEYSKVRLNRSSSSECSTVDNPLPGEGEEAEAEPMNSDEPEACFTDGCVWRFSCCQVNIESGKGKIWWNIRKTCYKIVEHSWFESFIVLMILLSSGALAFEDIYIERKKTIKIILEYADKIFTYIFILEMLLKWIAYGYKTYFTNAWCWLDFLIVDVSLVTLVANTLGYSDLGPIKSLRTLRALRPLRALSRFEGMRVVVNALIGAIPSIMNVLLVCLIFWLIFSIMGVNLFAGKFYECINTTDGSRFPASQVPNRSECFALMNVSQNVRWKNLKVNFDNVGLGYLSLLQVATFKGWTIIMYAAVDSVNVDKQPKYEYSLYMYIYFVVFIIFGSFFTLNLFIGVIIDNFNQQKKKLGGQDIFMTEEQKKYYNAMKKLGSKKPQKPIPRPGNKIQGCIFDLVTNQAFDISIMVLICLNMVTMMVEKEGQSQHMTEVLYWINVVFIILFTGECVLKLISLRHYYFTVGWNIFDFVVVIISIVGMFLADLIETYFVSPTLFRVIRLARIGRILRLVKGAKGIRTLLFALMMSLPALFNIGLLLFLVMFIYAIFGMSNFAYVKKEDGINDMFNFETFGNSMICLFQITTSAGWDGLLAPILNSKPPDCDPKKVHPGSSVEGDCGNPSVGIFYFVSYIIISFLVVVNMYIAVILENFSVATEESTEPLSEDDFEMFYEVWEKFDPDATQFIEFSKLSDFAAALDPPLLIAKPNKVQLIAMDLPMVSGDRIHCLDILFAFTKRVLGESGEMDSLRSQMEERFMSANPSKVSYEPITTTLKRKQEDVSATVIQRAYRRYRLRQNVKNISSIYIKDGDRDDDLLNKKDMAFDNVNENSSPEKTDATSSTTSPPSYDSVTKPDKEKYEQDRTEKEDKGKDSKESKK

**Q.** With Cn1cnnc1-c1cc(Cl)ccc1Oc1ccc(S(=O)(=O)Nc2nccs2)cc1C#N [Example 182, 4-(4-chloro-2-(4-methyl-4H-1,2,4-triazol-3-yl)phenoxy)-3-cyano-N-(thiazol-2-yl)benzenesulfonamide] as the molecule, how does the IC50 read?
**A.** 930 nM

**Q.** COc1ccc(-n2cc(Oc3ccc(S(=O)(=O)Nc4ncc(Cl)s4)cc3C#N)c(C(C)C)n2)cc1 [Example 145, N-(5-chloro-1,3-thiazol-2-yl)-3-cyano-4-{[3-isopropyl-1-(4-methoxyphenyl)-1H-pyrazol-4-yl]oxy}benzenesulfonamide] was tested. Which IC50 did it give?
**A.** 2000 nM

**Q.** For N#Cc1cc(S(=O)(=O)Nc2ncns2)ccc1Oc1ccccc1Oc1ccccc1C(N)=O [Example 76, 2-(2-{2-cyano-4-[(1,2,4-thiadiazol-5-yl-amino)sulfonyl]phenoxy}phenoxy)benzamide], which IC50 is on record?
**A.** >10000 nM

**Q.** How did the IC50 turn out when N#Cc1cc(S(=O)(=O)Nc2ccncn2)ccc1Oc1ccccc1-c1ccccc1 [Example 106, 4-(biphenyl-2-yloxy)-3-cyano-N-pyrimidin-4-ylbenzenesulfonamide] was run?
**A.** 4160 nM

**Q.** Which IC50 does the source give for O=S(=O)(Nc1nccs1)c1ccc(Oc2cc(C(F)(F)F)nn2-c2ccccc2F)c(F)c1 [Example 230, 3-fluoro-4-[2-(2-fluoro-phenyl)-5-trifluoromethyl-2H-pyrazol-3-yloxy]-N-thiazol-2-yl-benzenesulfonamide] here?
**A.** 710 nM

**Q.** With Cn1nccc1-c1cc(F)cc(F)c1Oc1ccc(S(=O)(=O)Nc2ncns2)cc1C#N [Example 73, 3-cyano-4-[2,4-difluoro-6-(1-methyl-1H-pyrazol-5-yl)phenoxy]-N-1,2,4-thiadiazol-5-ylbenzenesulfonamide] as the molecule, how does the IC50 read?
**A.** 23400 nM

**Q.** With Cn1ncc(-c2ccccc2)c1Oc1ccc(S(=O)(=O)Nc2ncc(Cl)s2)cc1C#N [Example 138, N-(5-chloro-1,3-thiazol-2-yl)-3-cyano-4-[(1-methyl-4-phenyl-1H-pyrazol-5-yl)oxy]benzenesulfonamide] as the molecule, how does the IC50 read?
**A.** 38700 nM

**Q.** How did the IC50 turn out when N#Cc1cc(S(=O)(=O)Nc2ncns2)ccc1Oc1ccccc1-c1ccc(F)cc1 [Example 49, 3-cyano-4-[(4′-fluorobiphenyl-2-yl)oxy]-N-1,2,4-thiadiazol-5-ylbenzenesulfonamide] was run?
**A.** 160 nM

**Q.** Which IC50 does the source give for Cn1nccc1-c1cc(Cl)ccc1Oc1ccc(S(=O)(=O)Nc2cscn2)cc1F [Example 272, 4-[4-chloro-2-(2-methyl-2H-pyrazol-3-yl)-phenoxy]-3-fluoro-N-thiazol-4-yl-benzenesulfonamide] here?
**A.** 810 nM

**Q.** Which IC50 does the source give for O=S(=O)(Nc1nccs1)c1ccc(Oc2cccc(-c3ccccc3)c2)cc1F [Example 210, 4-(biphenyl-3-yloxy)-2-fluoro-N-(thiazol-2-yl)benzenesulfonamide] here?
**A.** 1370 nM

**Q.** O=S(=O)(Nc1nccs1)c1ccc(Oc2ccccc2-c2ccccc2)nc1 [Example 278, 6-(biphenyl-2-yloxy)-pyridine-3-sulfonic acid thiazol-2-ylamide] was tested. Which IC50 did it give?
**A.** 2660 nM

**Q.** CC(C)c1nn(-c2ccccc2Cl)cc1Oc1ccc(S(=O)(=O)Nc2ncns2)cc1C#N [Example 67, 4-{[1-(2-chlorophenyl)-3-isopropyl-1H-pyrazol-4-yl]oxy}-3-cyano-N-1,2,4-thiadiazol-5-ylbenzenesulfonamide] was tested. Which IC50 did it give?
**A.** 4220 nM

**Q.** O=S(=O)(Nc1nccs1)c1ccc(Oc2ncncc2-c2ccccc2)c(F)c1 [Example 236, 3-fluoro-4-(5-phenylpyrimidin-4-yloxy)-N-(thiazol-2-yl)benzenesulfonamide] was tested. Which IC50 did it give?
**A.** 13900 nM

Same assay, conditions: estimated IC50; hSCN9A HEK cells, PatchXpress platform; Examples 283-814

**Q.** How did the IC50 turn out when Nc1ncccc1-c1cc(Cl)ccc1Oc1cc(F)c(S(=O)(=O)Nc2ncns2)cc1Cl [Example 618, 4-[2-(2-aminopyridin-3-yl)-4-chlorophenoxy]-5-chloro-2-fluoro-N-1,2,4-thiadiazol-5-ylbenzenesulfonamide] was run?
**A.** 11 nM

**Q.** Which IC50 does the source give for N#Cc1cc(S(=O)(=O)Nc2ncn[nH]2)ccc1Oc1ccccc1-c1ccccc1 [Example 431, 4-(biphenyl-2-yloxy)-3-cyano-N-1H-1,2,4-triazol-5-ylbenzenesulfonamide] here?
**A.** 11000 nM

**Q.** N#Cc1cc(S(=O)(=O)Nc2nccs2)ccc1Oc1ccc(N2CCNC2=O)cc1 [Example 486, 3-cyano-4-[4-(2-oxoimidazolidin-1-yl)phenoxy]-N-1,3-thiazol-2-ylbenzenesulfonamide] was tested. Which IC50 did it give?
**A.** >1000 nM

**Q.** For CCc1cc(-n2ccc(C(F)(F)F)n2)ccc1Oc1ccc(S(=O)(=O)Nc2nccs2)cc1C#N [Example 490, 3-cyano-4-{2-ethyl-4-[3-(trifluoromethyl)-1H-pyrazol-1-yl]phenoxy}-N-1,3-thiazol-2-ylbenzenesulfonamide], which IC50 is on record?
**A.** 660 nM

**Q.** With O=S(=O)(Nc1nccs1)c1cc(F)c(Oc2ccc(OC(F)(F)F)cc2-c2cn[nH]c2)cc1F [Example 677, 2,5-difluoro-4-[2-(1H-pyrazol-4-yl)-4-(trifluoromethoxy)phenoxy]-N-1,3-thiazol-2-ylbenzenesulfonamide] as the molecule, how does the IC50 read?
**A.** 12 nM

**Q.** Cn1cc(C(F)(F)F)nc1-c1ccc(Oc2ccc(S(=O)(=O)Nc3nccs3)cc2C#N)cc1 [Example 320, 3-cyano-4-{4-[1-methyl-4-(trifluoromethyl)-1H-imidazol-2-yl]phenoxy}-N-1,3-thiazol-2-ylbenzenesulfonamide] was tested. Which IC50 did it give?
**A.** 3300 nM

**Q.** Nc1cc(-c2cc(Cl)ccc2Oc2cc(F)c(S(=O)(=O)Nc3ncns3)cc2F)ccn1 [Example 787, 4-[2-(2-aminopyridin-4-yl)-4-chlorophenoxy]-2,5-difluoro-N-1,2,4-thiadiazol-5-ylbenzenesulfonamide] was tested. Which IC50 did it give?
**A.** 7.2 nM

**Q.** With O=S(=O)(Nc1ncc(Cl)s1)c1cc(F)c(Oc2ccc(F)cc2-c2cn[nH]c2)cc1F [Example 614, N-(5-chloro-1,3-thiazol-2-yl)-2,5-difluoro-4-[4-fluoro-2-(1H-pyrazol-4-yl)phenoxy]benzenesulfonamide] as the molecule, how does the IC50 read?
**A.** 180 nM

**Q.** CCn1nc(C(F)(F)F)cc1-c1cccc(Oc2ccc(S(=O)(=O)Nc3ccc(F)cn3)cc2C#N)c1 [Example 368, 3-cyano-4-{3-[1-ethyl-3-(trifluoromethyl)-1H-pyrazol-5-yl]phenoxy}-N-(5-fluoropyridin-2-yl)benzenesulfonamide] was tested. Which IC50 did it give?
**A.** >1000 nM

**Q.** Which IC50 does the source give for O=S(=O)(Nc1ccncn1)c1ccc(Oc2ccc(Cl)cc2-c2ccn[nH]2)c(Cl)c1 [Example 746, 3-chloro-4-[4-chloro-2-(1H-pyrazol-5-yl)phenoxy]-N-pyrimidin-4-ylbenzenesulfonamide] here?
**A.** 95 nM

**Q.** For Cn1ccc(-c2cc(Cl)ccc2Oc2ccc(S(=O)(=O)Nc3ncns3)cc2C#N)n1 [Example 286, 4-[4-chloro-2-(1-methyl-1H-pyrazol-3-yl)phenoxy]-3-cyano-N-1,2,4-thiadiazol-5-ylbenzenesulfonamide], which IC50 is on record?
**A.** 530 nM

**Q.** With N#Cc1cc(S(=O)(=O)Nc2ncc(Cl)s2)ccc1Oc1ccc(F)cc1-c1ccc(N)nc1 [Example 587, 4-[2-(6-Aminopyridin-3-yl)-4-fluorophenoxy]-N-(5-chloro-1,3-thiazol-2-yl)-3-cyanobenzenesulfonamide] as the molecule, how does the IC50 read?
**A.** 200 nM

**Q.** For Cn1nccc1-c1cc(OC(F)(F)F)ccc1Oc1ccc(S(=O)(=O)Nc2nccs2)cc1C#N [Example 783, 3-cyano-4-[2-(1-methyl-1H-pyrazol-5-yl)-4-(trifluoromethoxy)phenoxy]-N-1,3-thiazol-2-ylbenzenesulfonamide], which IC50 is on record?
**A.** 7.8 nM

**Q.** Cc1nsc(NS(=O)(=O)c2ccc(Oc3ccc(Cl)cc3-c3ccnn3C)c(F)c2)n1 [Example 515, 4-[4-chloro-2-(1-methyl-1H-pyrazol-5-yl)phenoxy]-3-fluoro-N-(3-methyl-1,2,4-thiadiazol-5-yl)benzenesulfonamide] was tested. Which IC50 did it give?
**A.** 1900 nM

**Q.** O=S(=O)(Nc1cscn1)c1ccc(Oc2ccc(Cl)cc2-c2cn[nH]c2)c(F)c1 [Example 611, 4-[4-chloro-2-(1H-pyrazol-4-yl)phenoxy]-3-fluoro-N-1,3-thiazol-4-ylbenzenesulfonamide] was tested. Which IC50 did it give?
**A.** 520 nM

**Q.** Which IC50 does the source give for N#Cc1cc(S(=O)(=O)Nc2nccs2)ccc1Oc1cccc(-c2cc(C(F)(F)F)nn2CCO)c1 [Example 549, 3-cyano-4-{3-[1-(2-hydroxyethyl)-3-(trifluoromethyl)-1H-pyrazol-5-yl]phenoxy}-N-1,3-thiazol-2-ylbenzenesulfonamide] here?
**A.** 160 nM

**Q.** Which IC50 does the source give for Cn1nc(C(F)(F)F)cc1-c1ccc(Oc2ccc(S(=O)(=O)Nc3nccs3)cc2F)cc1 [Example 684, 3-fluoro-4-{4-[1-methyl-3-(trifluoromethyl)-1H-pyrazol-5-yl]phenoxy}-N-1,3-thiazol-2-ylbenzenesulfonamide] here?
**A.** 1000 nM

**Q.** Which IC50 does the source give for Cn1ccc(-c2ccc(F)cc2Oc2ccc(S(=O)(=O)Nc3nccs3)cc2C#N)n1 [Example 494, 3-cyano-4-[5-fluoro-2-(1-methyl-1H-pyrazol-3-yl)phenoxy]-N-1,3-thiazol-2-ylbenzenesulfonamide] here?
**A.** 2500 nM

**Q.** With N#Cc1ccnc(NS(=O)(=O)c2ccc(Oc3ccccc3-c3ccccc3)c(C#N)c2)c1 [Example 422, 4-(biphenyl-2-yloxy)-3-cyano-N-(4-cyanopyridin-2-yl)benzenesulfonamide] as the molecule, how does the IC50 read?
**A.** >1000 nM

**Q.** How did the IC50 turn out when CCn1nc(-c2ccc(Oc3ccc(S(=O)(=O)Nc4ncc(F)s4)cc3C#N)c(F)c2)cc1C(F)(F)F [Example 540, 3-cyano-4-{4-[1-ethyl-5-(trifluoromethyl)-1H-pyrazol-3-yl]-2-fluorophenoxy}-N-(5-fluoro-1,3-thiazol-2-yl)benzenesulfonamide] was run?
**A.** 4000 nM

Same assay, conditions: estimated IC50; hSCN9A HEK cells, PatchXpress platform; Examples 815-1040

**Q.** N#Cc1cc(S(=O)(=O)Nc2ncns2)ccc1Oc1ccc(F)cc1-c1cocn1 [Example 889, 3-cyano-4-[4-fluoro-2-(1,3-oxazol-4-yl)phenoxy]-N-1,2,4-thiadiazol-5-ylbenzenesulfonamide] was tested. Which IC50 did it give?
**A.** 670 nM

**Q.** For N#Cc1cc(S(=O)(=O)Nc2ncns2)ccc1Oc1ccc(Cl)cc1-c1ccnnc1 [Example 868, 4-(4-chloro-2-pyridazin-4-ylphenoxy)-3-cyano-N-1,2,4-thiadiazol-5-ylbenzenesulfonamide], which IC50 is on record?
**A.** 15 nM

**Q.** How did the IC50 turn out when CCN1CC(n2nccc2-c2cc(F)ccc2Oc2cc(F)c(S(=O)(=O)Nc3ncns3)cc2Cl)C1 [Example 848, 5-chloro-4-{2-[1-(1-ethylazetidin-3-yl)-1H-pyrazol-5-yl]-4-fluorophenoxy}-2-fluoro-N-1,2,4-thiadiazol-5-ylbenzenesulfonamide] was run?
**A.** 5.1 nM
